# Measured values published in the supplement of paper PMC10307832.
# How the values were obtained:
# Experiment in all cases: relative viability (nuclei count vs DMSO), 5 days (fraction); higher = more cells survive
# [1] = compound: CN(NC(=O)CC(=O)NN(C)C(=S)c1ccccc1)C(=S)c1ccccc1 [Elesclomol] + Cc1nc(Nc2ncc(C(=O)Nc3c(C)cccc3Cl)s2)cc(N2CCN(CCO)CC2)n1 [Dasatinib] (partner 0.075 µM)
# Procedure, shortened: (§1)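 One day after seeding in 1536-well plates, lung cancer cell lines were dosed by pin tool. Dosing was either single-drug or a fixed anchor-drug dose plus five library-drug doses (not always all listed) in √10 steps. After 5 days, nuclei were stained in one fix-and-stain step and counted on 4× images, and relative viability is the nuclei count of treated wells over that of vehicle wells, given as the median of duplicate plates.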
# [2] = compound: CN(NC(=O)CC(=O)NN(C)C(=S)c1ccccc1)C(=S)c1ccccc1 [Elesclomol] + Nc1nc2[nH]cc(CCc3ccc(C(=O)N[C@@H](CCC(=O)O)C(=O)O)cc3)c2c(=O)[nH]1 [Pemetrexed] (partner 0.2 µM)
# Procedure, shortened: as §1
# [3] = compound: CN(NC(=O)CC(=O)NN(C)C(=S)c1ccccc1)C(=S)c1ccccc1 [Elesclomol] + C[C@@H](Oc1cc(-c2cnn(C3CCNCC3)c2)cnc1N)c1c(Cl)ccc(F)c1Cl [Crizotinib] (partner 1 µM)
# Procedure, shortened: as §1
# [4] = compound: CN(NC(=O)CC(=O)NN(C)C(=S)c1ccccc1)C(=S)c1ccccc1 [Elesclomol] + CCNC(=O)c1noc(-c2cc(C(C)C)c(O)cc2O)c1-c1ccc(CN2CCOCC2)cc1 [Luminespib] (partner 0.01 µM)
# Procedure, shortened: as §1
# [5] = compound: CN(NC(=O)CC(=O)NN(C)C(=S)c1ccccc1)C(=S)c1ccccc1 [Elesclomol] + COc1cc2c(Oc3ccc(NC(=O)C4(C(=O)Nc5ccc(F)cc5)CC4)cc3F)ccnc2cc1OCCCN1CCOCC1 [Foretinib] (partner 0.25 µM)
# Procedure, shortened: as §1
# [6] = compound: CN(NC(=O)CC(=O)NN(C)C(=S)c1ccccc1)C(=S)c1ccccc1 [Elesclomol] + N=C(N)NC(=N)NCCc1ccccc1 [Phenformin] (partner 250 µM)
# Procedure, shortened: as §1
# [7] = compound: CN(NC(=O)CC(=O)NN(C)C(=S)c1ccccc1)C(=S)c1ccccc1 [Elesclomol] + CS(=O)(=O)CCNCc1ccc(-c2ccc3ncnc(Nc4ccc(OCc5cccc(F)c5)c(Cl)c4)c3c2)o1 [Lapatinib] (partner 2 µM)
# Procedure, shortened: as §1
# [8] = compound: CN(NC(=O)CC(=O)NN(C)C(=S)c1ccccc1)C(=S)c1ccccc1 [Elesclomol] + CS(=O)(=O)N1CCN(Cc2cc3nc(-c4cccc5[nH]ncc45)nc(N4CCOCC4)c3s2)CC1 [Pictilisib] (partner 1 µM)
# Procedure, shortened: as §1
# [9] = compound: CN(NC(=O)CC(=O)NN(C)C(=S)c1ccccc1)C(=S)c1ccccc1 [Elesclomol] + C[C@]1(O)C[C@@H](c2nc(-c3ccc4ccc(-c5ccccc5)nc4c3)c3c(N)nccn32)C1 [Linsitinib] (partner 1 µM)
# Procedure, shortened: as §1
# [10] = compound: CN(NC(=O)CC(=O)NN(C)C(=S)c1ccccc1)C(=S)c1ccccc1 [Elesclomol] + COc1cccc2cc(-c3nc([C@H]4CC[C@H](C(=O)O)CC4)n4ncnc(N)c34)[nH]c12 [OSI-027] (partner 0.5 µM)
# Procedure, shortened: as §1
# [11] = compound: CN(NC(=O)CC(=O)NN(C)C(=S)c1ccccc1)C(=S)c1ccccc1 [Elesclomol] + Cc1nc(NC(=O)N2CCC[C@H]2C(N)=O)sc1-c1ccnc(C(C)(C)C(F)(F)F)c1 [Alpelisib] (partner 2 µM)
# Procedure, shortened: as §1
# [12] = compound: CN(NC(=O)CC(=O)NN(C)C(=S)c1ccccc1)C(=S)c1ccccc1 [Elesclomol] + CC(C)C[C@H](NC(=O)[C@H](Cc1ccccc1)NC(=O)c1cnccn1)B(O)O [Bortezomib] (partner 0.002 µM)
# Procedure, shortened: as §1
# [13] = compound: CN(NC(=O)CC(=O)NN(C)C(=S)c1ccccc1)C(=S)c1ccccc1 [Elesclomol]
# Procedure, shortened: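 Vehicle-anchored 1536-well plates of lung cancer cell lines, held overnight at 37 °C, were pinned with five library-drug doses (not always all listed) spaced by √10. No medium change followed over the next 5 days, after which the cells were fixed, permeabilised and Hoechst-stained together and imaged at 4×. Nuclei were counted with MetaXpress, and viability is treated-well nuclei over vehicle-well nuclei, taken as a median across plates. Plates passed with control CV below 25% and at least one doubling.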
cell line,measurement,setting,value
NCI-H1563,relative viability,[1]; first compound 0.003162 µM,0.447
same,relative viability,[1]; first compound 0.01 µM,0.476
same,relative viability,[1]; first compound 0.03162 µM,0.413
same,relative viability,[1]; first compound 0.1 µM,0.382
same,relative viability,[2]; first compound 0.003162 µM,0.741
same,relative viability,[2]; first compound 0.01 µM,0.698
same,relative viability,[2]; first compound 0.03162 µM,0.544
same,relative viability,[2]; first compound 0.1 µM,0.619
same,relative viability,[3]; first compound 0.003162 µM,0.649
same,relative viability,[3]; first compound 0.01 µM,0.623
same,relative viability,[3]; first compound 0.03162 µM,0.502
same,relative viability,[3]; first compound 0.1 µM,0.453
same,relative viability,[4]; first compound 0.003162 µM,0.518
same,relative viability,[4]; first compound 0.01 µM,0.472
same,relative viability,[4]; first compound 0.03162 µM,0.471
same,relative viability,[4]; first compound 0.1 µM,0.432
same,relative viability,[5]; first compound 0.003162 µM,0.727
same,relative viability,[5]; first compound 0.01 µM,0.724
same,relative viability,[5]; first compound 0.03162 µM,0.617
same,relative viability,[5]; first compound 0.1 µM,0.459
same,relative viability,[6]; first compound 0.003162 µM,0.589
same,relative viability,[6]; first compound 0.01 µM,0.569
same,relative viability,[6]; first compound 0.03162 µM,0.516
same,relative viability,[6]; first compound 0.1 µM,0.479
same,relative viability,[7]; first compound 0.003162 µM,0.625
same,relative viability,[7]; first compound 0.01 µM,0.562
same,relative viability,[7]; first compound 0.03162 µM,0.601
same,relative viability,[7]; first compound 0.1 µM,0.458
same,relative viability,[8]; first compound 0.003162 µM,0.656
same,relative viability,[8]; first compound 0.01 µM,0.582
same,relative viability,[8]; first compound 0.03162 µM,0.587
same,relative viability,[8]; first compound 0.1 µM,0.486
same,relative viability,[9]; first compound 0.003162 µM,0.817
same,relative viability,[9]; first compound 0.01 µM,0.705
same,relative viability,[9]; first compound 0.03162 µM,0.632
same,relative viability,[9]; first compound 0.1 µM,0.468
same,relative viability,[10]; first compound 0.003162 µM,0.647
same,relative viability,[10]; first compound 0.01 µM,0.606
same,relative viability,[10]; first compound 0.03162 µM,0.52
same,relative viability,[10]; first compound 0.1 µM,0.459
same,relative viability,[11]; first compound 0.003162 µM,0.687
same,relative viability,[11]; first compound 0.01 µM,0.613
same,relative viability,[11]; first compound 0.03162 µM,0.537
same,relative viability,[11]; first compound 0.1 µM,0.527
same,relative viability,[12]; first compound 0.003162 µM,0.732
same,relative viability,[12]; first compound 0.01 µM,0.62
same,relative viability,[12]; first compound 0.03162 µM,0.457
same,relative viability,[12]; first compound 0.1 µM,0.492
same,relative viability,[13]; 0.003162 µM,0.786
same,relative viability,[13]; 0.01 µM,0.675
same,relative viability,[13]; 0.03162 µM,0.651
same,relative viability,[13]; 0.1 µM,0.542
